The values that follow come from PMC5842439 (Nuclear medicine and biology, 2013).

Where two headings read alike, the source gives them in different places.

For the test, the system named is BT474 xenografts. The conditions noted are these: for tumor SUV, % of pretreatment SUV: mice without DOX (n=8), mean±SD.

As to `OC[C@H]1OC(O)[C@H]([18F])[C@@H](O)[C@@H]1O` (stereo partly shown) [Agent F-18-FDG, 2’-F-18-fluorodeoxyglucose], the “muscle uptake in contralateral normal thigh” value (PET imaging, mouse bearing BT474 tumor in the right thigh) is “significant”. The “tumor SUV, % of pretreatment SUV” value came to 108±28% (3rd week), 151±8% (5th week) and 152±355% (7th week).
